Assay results from ChEMBL document CHEMBL4699513, “Sulfamic acid catalyzed synthesis of new 3,5-[(sub)phenyl]-1H-pyrazole bearing N-isonicotinoyl: And their pharmacological activity evaluation” (2020).
Converted amounts (≈) assume the structure as drawn. The source made the active and inactive calls. The calls are words filed in the database; no cut-off is given here.

What was measured:
[1] = tested on: Escherichia coli; test: Antimicrobial activity against Escherichia coli ATCC 25922 incubated for 24 hrs by broth microdilution method; assay type: functional
[2] = tested on: Staphylococcus aureus; test: Antimicrobial activity against Staphylococcus aureus ATCC 29737 incubated for 24 hrs by broth microdilution method; assay type: functional
[3] = tested on: Salmonella typhi; test: Antimicrobial activity against Salmonella typhi ATCC 23564 incubated for 24 hrs by broth microdilution method; assay type: functional, Salmonella enterica subsp. enterica serovar Typhi; settings: Salmonella enterica
[4] = tested on: Pseudomonas aeruginosa; test: Antimicrobial activity against Pseudomonas aeruginosa ATCC 19429 incubated for 24 hrs by broth microdilution method; assay type: functional
[5] = tested on: Mycobacterium tuberculosis; test: Antimycobacterial activity against Mycobacterium tuberculosis H37Rv assessed as bacterial growth inhibition; assay type: functional
[6] = Antioxidant activity assessed as DPPH radical scavenging activity at 250 to 1000 ug/ml after 30 mins by UV-Vis spectrophotometric analysis; assay type: functional; settings: dose microg/ml 250-1000, time 30.0 min
[7] = tested on: Mycobacterium tuberculosis; test: Antimycobacterial activity against Mycobacterium tuberculosis H37Rv assessed as bacterial growth inhibition at the MIC of 153 uM; assay type: functional; set-up: scale not given: the % may be the effect or the level left
[8] = tested on: Pseudomonas aeruginosa; test: Antimicrobial activity against Pseudomonas aeruginosa ATCC 19429 assessed as zone of inhibition at 4 mg/ml incubated for 24 hrs by agar well diffusion method; assay type: functional; settings: for zone of inhibition at 4000 µg/mL: read-out: IZ
[9] = tested on: Mycobacterium tuberculosis; test: Antimycobacterial activity against Mycobacterium tuberculosis H37Rv assessed as bacterial growth inhibition at MIC of 1343 uM; assay type: functional; set-up: scale not given: the % may be the effect or the level left
[10] = tested on: Escherichia coli; test: Antimicrobial activity against Escherichia coli ATCC 25922 assessed as zone of inhibition at 4 mg/ml incubated for 24 hrs by agar well diffusion method; assay type: functional; settings: read-out: IZ
[11] = tested on: Staphylococcus aureus; test: Antimicrobial activity against Staphylococcus aureus ATCC 29737 assessed as zone of inhibition at 4 mg/ml incubated for 24 hrs by agar well diffusion method; assay type: functional; settings: read-out: IZ
[12] = tested on: Salmonella typhi; test: Antimicrobial activity against Salmonella typhi ATCC 23564 assessed as zone of inhibition at 4 mg/ml incubated for 24 hrs by agar well diffusion method; assay type: functional, Salmonella enterica subsp. enterica serovar Typhi; settings: Salmonella enterica, read-out: IZ
[13] = tested on: Mycobacterium tuberculosis; test: Antimycobacterial activity against Mycobacterium tuberculosis H37Rv assessed as bacterial growth inhibition at MIC of 614 uM; assay type: functional; set-up: scale not given: the % may be the effect or the level left
[14] = tested on: Mycobacterium tuberculosis; test: Antimycobacterial activity against Mycobacterium tuberculosis H37Rv assessed as bacterial growth inhibition at MIC of 164 uM; assay type: functional; set-up: scale not given: the % may be the effect or the level left
[15] = tested on: Mycobacterium tuberculosis; test: Antimycobacterial activity against Mycobacterium tuberculosis H37Rv assessed as bacterial growth inhibition at MIC of 31 uM; assay type: functional; set-up: scale not given: the % may be the effect or the level left
[16] = tested on: Mycobacterium tuberculosis; test: Antimycobacterial activity against Mycobacterium tuberculosis H37Rv assessed as bacterial growth inhibition at the MIC of 266 uM; assay type: functional; set-up: scale not given: the % may be the effect or the level left
[17] = tested on: Mycobacterium tuberculosis; test: Antimycobacterial activity against Mycobacterium tuberculosis H37Rv assessed as bacterial growth inhibition at MIC of 15 uM; assay type: functional; set-up: scale not given: the % may be the effect or the level left
[18] = tested on: Mycobacterium tuberculosis; test: Antimycobacterial activity against Mycobacterium tuberculosis H37Rv assessed as bacterial growth inhibition at MIC of 1.4 uM; assay type: functional; set-up: scale not given: the % may be the effect or the level left
[19] = tested on: Mycobacterium tuberculosis; test: Antimycobacterial activity against Mycobacterium tuberculosis H37Rv assessed as bacterial growth inhibition at MIC of 566 uM; assay type: functional; set-up: scale not given: the % may be the effect or the level left
[20] = tested on: Mycobacterium tuberculosis; test: Antimycobacterial activity against Mycobacterium tuberculosis H37Rv assessed as bacterial growth inhibition at MIC of 144 uM; assay type: functional; set-up: scale not given: the % may be the effect or the level left
[21] = tested on: MCF7; test: Anticancer activity against human MCF7 cells assessed as inhibition of cell growth at 80 ug/ml by sulforhodamine B assay; assay type: functional, cell-based; settings: dose 80.0 µg/ml
[22] = tested on: HeLa; test: Anticancer activity against human HeLa cells assessed as inhibition of cell growth at 40 to 80 ug/ml by sulforhodamine B assay; assay type: functional, cell-based; settings: dose microg/ml 40-80
[23] = tested on: MCF7; test: Anticancer activity against human MCF7 cells assessed as inhibition of cell growth at 20 to 80 ug/ml by sulforhodamine B assay; assay type: functional, cell-based; settings: dose microg/ml 20-80
[24] = tested on: Mycobacterium tuberculosis; test: Antimycobacterial activity against Mycobacterium tuberculosis H37Rv assessed as bacterial growth inhibition at MIC of 34 uM; assay type: functional; set-up: scale not given: the % may be the effect or the level left
[25] = tested on: Mycobacterium tuberculosis; test: Antimycobacterial activity against Mycobacterium tuberculosis H37Rv assessed as bacterial growth inhibition at MIC of 237 uM; assay type: functional; set-up: scale not given: the % may be the effect or the level left
[26] = tested on: Mycobacterium tuberculosis; test: Antimycobacterial activity against Mycobacterium tuberculosis H37Rv assessed as bacterial growth inhibition at MIC of 294 uM; assay type: functional; set-up: scale not given: the % may be the effect or the level left

SMILES	MIC [1] [µM]	MIC [2] [µM]	MIC [3] [µM]	MIC [4] [µM]	MIC [5] [µM]	Activity [6]	zone of inhibition at 4000 µg/mL [8] [mm]	zone of inhibition at 4000 µg/mL [10] [mm]	zone of inhibition at 4000 µg/mL [11] [mm]	zone of inhibition at 4000 µg/mL [12] [mm]	other results
O=C(c1ccncc1)N1NC(c2ccc(Br)cc2)=CC1c1ccccc1 (configuration not stated)	123 (≈ 50 µg/mL)	492 (≈ 200 µg/mL)	492 (≈ 200 µg/mL)	123 (≈ 50 µg/mL)	153 (≈ 62.2 µg/mL)	Active	10.3				Activity [7]: 97%
O=C(c1ccncc1)N1NC(c2ccccc2)=CC1c1cccc([N+](=O)[O-])c1 (configuration not stated)	268 (≈ 99.8 µg/mL)	537 (≈ 200 µg/mL)	537 (≈ 200 µg/mL)	67 (≈ 24.9 µg/mL)	1340 (≈ 500 µg/mL)	Active	12.3	10.2	8.4	15.3	Activity [9]: 95%
O=C(c1ccncc1)N1NC(c2ccc(Cl)cc2)=CC1c1ccc([N+](=O)[O-])cc1 (configuration not stated)	122 (≈ 49.6 µg/mL)	245 (≈ 99.7 µg/mL)	245 (≈ 99.7 µg/mL)	122 (≈ 49.6 µg/mL)	614 (≈ 250 µg/mL)	Active	14.2	17.1	23.4	18.3	Activity [13]: 95%
O=C(c1ccncc1)N1NC(c2ccc(Cl)cc2)=CC1c1ccc(F)cc1 (configuration not stated)	32 (≈ 12.2 µg/mL)	131 (≈ 49.8 µg/mL)	263 (≈ 99.9 µg/mL)	131 (≈ 49.8 µg/mL)	164 (≈ 62.3 µg/mL)	Active	12.3	15	22.3		Activity [14]: 96%
COc1cccc(C2=CC(c3ccc(Cl)cc3)N(C(=O)c3ccncc3)N2)c1 (configuration not stated)	127 (≈ 49.8 µg/mL)	31 (≈ 12.1 µg/mL)	511 (≈ 200 µg/mL)	63 (≈ 24.7 µg/mL)	31 (≈ 12.1 µg/mL)	Active	12.3	12.3	27.2		Activity [15]: 99%
Cc1ccc(C2C=C(c3ccc(Cl)cc3)NN2C(=O)c2ccncc2)cc1 (configuration not stated)	533 (≈ 200 µg/mL)	66 (≈ 24.8 µg/mL)	533 (≈ 200 µg/mL)	133 (≈ 50 µg/mL)	266 (≈ 100 µg/mL)	Active		12.6		21.4	Activity [16]: 98%
CC[C@@H](CO)NCCN[C@@H](CC)CO [ETHAMBUTOL]					15 (≈ 3.06 µg/mL)						Activity [17]: 99%
NNC(=O)c1ccncc1 [ISONIAZID]					1.4 (≈ 0.192 µg/mL)						Activity [18]: 99%
O=C(c1ccncc1)N1NC(c2ccc(Cl)cc2Cl)=CC1c1cccc([N+](=O)[O-])c1 (configuration not stated)	113 (≈ 49.9 µg/mL)	226 (≈ 99.7 µg/mL)	453 (≈ 200 µg/mL)	453 (≈ 200 µg/mL)	566 (≈ 250 µg/mL)	Active		12.4	23.8	21	Activity [19]: 95%
CC1(C)S[C@@H]2[C@H](NC(=O)[C@H](N)c3ccccc3)C(=O)N2[C@H]1C(=O)O [AMPICILLIN]	8.9 (≈ 3.11 µg/mL)	8.9 (≈ 3.11 µg/mL)						24.4	27.3		
COc1cccc(C2=CC(c3ccc(Br)cc3)N(C(=O)c3ccncc3)N2)c1 (configuration not stated)	57 (≈ 24.9 µg/mL)	14 (≈ 6.11 µg/mL)	114 (≈ 49.7 µg/mL)	229 (≈ 99.9 µg/mL)	144 (≈ 62.8 µg/mL)	Active	14.3	16.4	26.4	22.4	Activity [20]: 98%; Activity [21]: Active; Activity [22]: Active
Cc1ccc(C2=CC(c3ccc(F)cc3)N(C(=O)c3ccncc3)N2)cc1 (configuration not stated)	139 (≈ 50 µg/mL)	17 (≈ 6.11 µg/mL)	278 (≈ 99.9 µg/mL)	139 (≈ 50 µg/mL)	34 (≈ 12.2 µg/mL)	Active			27		Activity [23]: Active; Activity [24]: 99%; inhibition zone (IZ) [8]: Active
CN[C@@H]1[C@H](O[C@H]2[C@H](O[C@H]3[C@H](O)[C@@H](O)[C@H](N=C(N)N)[C@@H](O)[C@@H]3N=C(N)N)O[C@@H](C)[C@]2(O)C=O)O[C@@H](CO)[C@H](O)[C@H]1O [STREPTOMYCIN]	5.3 (≈ 3.08 µg/mL)	5.3 (≈ 3.08 µg/mL)	5.3 (≈ 3.08 µg/mL)	5.3 (≈ 3.08 µg/mL)			25	22.2	30.6	29.1	
Cc1ccc(C2=CC(c3ccc(Br)cc3)N(C(=O)c3ccncc3)N2)cc1 (configuration not stated)	118 (≈ 49.6 µg/mL)	14 (≈ 5.88 µg/mL)	237 (≈ 99.6 µg/mL)	14 (≈ 5.88 µg/mL)	237 (≈ 99.6 µg/mL)	Active	20.4		25.4		Activity [25]: 97%
O=C(c1ccncc1)N1NC(c2ccc(F)cc2)=CC1c1ccc(Br)cc1 (configuration not stated)	58 (≈ 24.6 µg/mL)	235 (≈ 99.7 µg/mL)	117 (≈ 49.6 µg/mL)	29 (≈ 12.3 µg/mL)	294 (≈ 125 µg/mL)	Active	12.4		17.8	22.3	Activity [26]: 96%
